Experimental data from patent US6503943B1, “Platinum complex, its preparation and therapeutic application” (priority 1998, dated 2003).
Several values for one entry are separate records, joined by “and”; a condition that tells them apart may be missing. Identical values can stand only once.

What was measured:
[1] = tested on: mammal adenocarcinoma MC2111; assay: Antitumor effect at animals with solid form of mammal adenocarcinoma MC2111 (Example 9); format: in vivo, mice DBA1; conditions: for Tumor mass (%) of control / Tumor mass, Arithm. mean: 5th day, tumor size 14th day, mass from regression
[2] = tested on: ascitic form of Ehrlich tumor (ATE); assay: Antitumor effect at animals with ascitic form of Ehrlich tumor (ATE) (Example 11);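 for all read-outs here: half of each dose group killed on day 10, tumor mass taken as animal mass lost on ascites aspiration, ascitocrit by microhematocrit centrifuge, rest followed daily for survival versus reference group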; conditions: for Survival (in % of control) / Survival time, Geom. mean / Total ascitocrit (%) of control / Total ascitocrit (mass of cell fraction of a tumor), Arithm. mean / Tumor mass (%) of control / Tumor mass, Arithm. mean: 1st day; for Total ascitocrit (%) of control / Total ascitocrit (mass of cell fraction of a tumor), Arithm. mean / Tumor mass (%) of control / Tumor mass, Arithm. mean: dissection 10th day
[3] = tested on: ascitic form of Ehrlich tumor (ATE); assay: Antitumor effect at animals with ascitic form of Ehrlich tumor (ATE) (Example 10); format: in vivo, mice ICR; conditions: for Survival (in % of control) / Survival time, Geom. mean / Tumor mass (%) of control / Tumor mass, Arithm. mean: 1st day; for Tumor mass (%) of control / Tumor mass, Arithm. mean: dissection 10th day
leucaemia L1210 [4] = assay: Antitumor effect at animals with leucaemia L1210, single administration (Example 4); format: in vivo, mice DBA2; conditions: for Survival (in % of control) / Survival time, Geom. mean: 1st day
leucaemia L1210 [5] = assay: Antitumor effect at animals with leucaemia L1210, continual versus intermitent regimen (Example 6); format: in vivo, mice DBA2; conditions: for Survival (in % of control) / Survival time, Geom. mean: 1st day
Gardner lymphosarcoma = assay: Antitumor effect at animals with solid form of Gardner lymphosarcoma (Example 8); format: in vivo, mice C3H; conditions: 5th day, tumors weighed 14th day
leucaemia L1210 [6] = assay: Antitumor effect at animals with leucaemia L1210, continual regimen (Example 7); format: in vivo, mice DBA2
leucaemia L1210 [7] = assay: Antitumor effect at animals with leucaemia L1210, intermitent administration 3x (Example 5); format: in vivo, mice DBA2; conditions: 1st, 5th and 9th day

N.N.[Cl][Pt][Cl] [Platidiam, cis-diammin-dichloroplatinum(II) complex]
Tumor mass (%) of control ([1]; 4 mg/kg s.c. 1x): 76%
Tumor mass, Arithm. mean ([1]; 4 mg/kg s.c. 1x): 3.53 g
Tumor mass (%) of control ([1]; 8 mg/kg s.c. 1x): 69%
Tumor mass, Arithm. mean ([1]; 8 mg/kg s.c. 1x): 3.20 g
LTS - Long Term Survivors; the amount of animals destroyed at 120th day ([1]; mouse, in vivo): 1/10
Survival (in % of control) ([1]; mouse, in vivo): >162 2) % and >158 1) %
Survival time, Geom. mean ([1]; mouse, in vivo): 35.1 days and 34.3 days
Evaluation of antitumor effect, in words ([1]; p.o.×9 12, 6, 3 mg/kg/day, Platidiam 8 and 4 mg/kg s.c. once): antitumor effective
Survival (in % of control) ([2]; 2 mg/kg s.c. 1x): 128%
Survival time, Geom. mean ([2]; 2 mg/kg s.c. 1x): 11.4 days
Total ascitocrit (%) of control ([2]; 2 mg/kg s.c. 1x): 115%
Total ascitocrit (mass of cell fraction of a tumor), Arithm. mean ([2]; 2 mg/kg s.c. 1x): 0.79 g
Tumor mass (%) of control ([2]; 2 mg/kg s.c. 1x): 72%
Tumor mass, Arithm. mean ([2]; 2 mg/kg s.c. 1x): 2.83 g
Survival (in % of control) ([2]; 4 mg/kg s.c. 1x): 197%
Survival time, Geom. mean ([2]; 4 mg/kg s.c. 1x): 17.5 days
Total ascitocrit (%) of control ([2]; 4 mg/kg s.c. 1x): 116%
Total ascitocrit (mass of cell fraction of a tumor), Arithm. mean ([2]; 4 mg/kg s.c. 1x): 0.80 g
Tumor mass (%) of control ([2]; 4 mg/kg s.c. 1x): 90%
Tumor mass, Arithm. mean ([2]; 4 mg/kg s.c. 1x): 3.53 g
Survival (in % of control) ([2]; 8 mg/kg s.c. 1x): 208%
Survival time, Geom. mean ([2]; 8 mg/kg s.c. 1x): 18.5 days
Total ascitocrit (%) of control ([2]; 8 mg/kg s.c. 1x): 100%
Total ascitocrit (mass of cell fraction of a tumor), Arithm. mean ([2]; 8 mg/kg s.c. 1x): 0.68 g
Tumor mass (%) of control ([2]; 8 mg/kg s.c. 1x): 60%
Tumor mass, Arithm. mean ([2]; 8 mg/kg s.c. 1x): 2.36 g
Evaluation of antitumor effect (survival time versus control), in words ([2]; p.o.×9, Platidiam 8 and 4 mg/kg s.c.×1, Tab. 8.1): antitumor effective
Survival (in % of control) ([3]; 2 mg/kg s.c. 1x): 120%
Survival time, Geom. mean ([3]; 2 mg/kg s.c. 1x): 13.8 days
Tumor mass (%) of control ([3]; 2 mg/kg s.c. 1x): 115%
Tumor mass, Arithm. mean ([3]; 2 mg/kg s.c. 1x): 3.06 g
Survival (in % of control) ([3]; 4 mg/kg s.c. 1x): 190%
Survival time, Geom. mean ([3]; 4 mg/kg s.c. 1x): 21.8 days
Tumor mass (%) of control ([3]; 4 mg/kg s.c. 1x): 101%
Tumor mass, Arithm. mean ([3]; 4 mg/kg s.c. 1x): 2.68 g
Survival (in % of control) ([3]; 8 mg/kg s.c. 1x): 184%
Survival time, Geom. mean ([3]; 8 mg/kg s.c. 1x): 21.0 days
Tumor mass (%) of control ([3]; 8 mg/kg s.c. 1x): 82%
Tumor mass, Arithm. mean ([3]; 8 mg/kg s.c. 1x): 2.16 g
Significance of mean survival time increase in comparison with untreated control (p≦0.01), in words ([3]; Tab. 7-2): atatistically highly significant
Survival (in % of control) (leucaemia L1210 [4]; 2.5 mg/kg s.c. 1x): 112%
Survival time, Geom. mean (leucaemia L1210 [4]; 2.5 mg/kg s.c. 1x): 14.2 days
Survival (in % of control) (leucaemia L1210 [4]; 5 mg/kg s.c. 1x): >132%
Survival time, Geom. mean (leucaemia L1210 [4]; 5 mg/kg s.c. 1x): 16.7 days
Increase of mean value of survival time against the control (leucaemia L1210 [4]; 5 mg/kg s.c., single, not statistically significant): 32%
Survival (in % of control) (leucaemia L1210 [4]; 10 mg/kg s.c. 1x): 48%
Survival time, Geom. mean (leucaemia L1210 [4]; 10 mg/kg s.c. 1x): 6.1 days
Survival (in % of control) (leucaemia L1210 [5]; 2 mg/kg s.c. 1x): 155%
Survival time, Geom. mean (leucaemia L1210 [5]; 2 mg/kg s.c. 1x): 17.9 days
Survival (in % of control) (leucaemia L1210 [5]; 4 mg/kg s.c. 1x): 174%
Survival time, Geom. mean (leucaemia L1210 [5]; 4 mg/kg s.c. 1x): 20.2 days
Survival (in % of control) (leucaemia L1210 [5]; 8 mg/kg s.c. 1x): 204%
Survival time, Geom. mean (leucaemia L1210 [5]; 8 mg/kg s.c. 1x): 23.7 days
Evaluation of antitumor effect (survival time versus control), in words (leucaemia L1210 [5]; LA-12 6 mg/kg p.o.×9, Platidiam 8 and 4 mg/kg s.c.×1, LA-2 any of the dosage groups): antitumor effective
Tumor mass (%) of control (Gardner lymphosarcoma; 2 mg/kg s.c. 1x): 83%
Tumor mass, Arithm. mean (Gardner lymphosarcoma; 2 mg/kg s.c. 1x): 5.19 g
Tumor mass (%) of control (Gardner lymphosarcoma; 4 mg/kg s.c. 1x): 59%
Tumor mass, Arithm. mean (Gardner lymphosarcoma; 4 mg/kg s.c. 1x): 3.68 g
Tumor mass (%) of control (Gardner lymphosarcoma; 8 mg/kg s.c. 1x): 26%
Tumor mass, Arithm. mean (Gardner lymphosarcoma; 8 mg/kg s.c. 1x): 1.64 g
LTS - Long Term Survivors (amount of surviving animals in a group) (leucaemia L1210 [6]; 4 mg/kg s.c. 1x, 1st day): 5/10
Survival (in % of control) (leucaemia L1210 [6]; 4 mg/kg s.c. 1x, 1st day): >223%
Survival time, Geom. mean (leucaemia L1210 [6]; 4 mg/kg s.c. 1x, 1st day): 50.2 days
Increase of survival time value in comparison with the control group (leucaemia L1210 [6]; 4 mg/kg s.c.×1): 123%
Survival (in % of control) (leucaemia L1210 [7]; 1 mg/kg/day s.c. 3x): 178%
Survival time, Geom. mean (leucaemia L1210 [7]; 1 mg/kg/day s.c. 3x): 28.0 days
Survival (in % of control) (leucaemia L1210 [7]; 2 mg/kg/day s.c. 3x): 168%
Survival time, Geom. mean (leucaemia L1210 [7]; 2 mg/kg/day s.c. 3x): 26.3 days
Survival (in % of control) (leucaemia L1210 [7]; 4 mg/kg/day s.c. 3x): 106%
Survival time, Geom. mean (leucaemia L1210 [7]; 4 mg/kg/day s.c. 3x): 16.6 days
